{
  "source": "patent US10092606B2",
  "about": "“Synbiotic mixture” (Nestec S.A., priority 2006, dated 2018)",
  "target": "toxin A from C. difficile (Clostridioides difficile, UniProt P16154)",
  "sequence (P16154 whole entry, looked up)": "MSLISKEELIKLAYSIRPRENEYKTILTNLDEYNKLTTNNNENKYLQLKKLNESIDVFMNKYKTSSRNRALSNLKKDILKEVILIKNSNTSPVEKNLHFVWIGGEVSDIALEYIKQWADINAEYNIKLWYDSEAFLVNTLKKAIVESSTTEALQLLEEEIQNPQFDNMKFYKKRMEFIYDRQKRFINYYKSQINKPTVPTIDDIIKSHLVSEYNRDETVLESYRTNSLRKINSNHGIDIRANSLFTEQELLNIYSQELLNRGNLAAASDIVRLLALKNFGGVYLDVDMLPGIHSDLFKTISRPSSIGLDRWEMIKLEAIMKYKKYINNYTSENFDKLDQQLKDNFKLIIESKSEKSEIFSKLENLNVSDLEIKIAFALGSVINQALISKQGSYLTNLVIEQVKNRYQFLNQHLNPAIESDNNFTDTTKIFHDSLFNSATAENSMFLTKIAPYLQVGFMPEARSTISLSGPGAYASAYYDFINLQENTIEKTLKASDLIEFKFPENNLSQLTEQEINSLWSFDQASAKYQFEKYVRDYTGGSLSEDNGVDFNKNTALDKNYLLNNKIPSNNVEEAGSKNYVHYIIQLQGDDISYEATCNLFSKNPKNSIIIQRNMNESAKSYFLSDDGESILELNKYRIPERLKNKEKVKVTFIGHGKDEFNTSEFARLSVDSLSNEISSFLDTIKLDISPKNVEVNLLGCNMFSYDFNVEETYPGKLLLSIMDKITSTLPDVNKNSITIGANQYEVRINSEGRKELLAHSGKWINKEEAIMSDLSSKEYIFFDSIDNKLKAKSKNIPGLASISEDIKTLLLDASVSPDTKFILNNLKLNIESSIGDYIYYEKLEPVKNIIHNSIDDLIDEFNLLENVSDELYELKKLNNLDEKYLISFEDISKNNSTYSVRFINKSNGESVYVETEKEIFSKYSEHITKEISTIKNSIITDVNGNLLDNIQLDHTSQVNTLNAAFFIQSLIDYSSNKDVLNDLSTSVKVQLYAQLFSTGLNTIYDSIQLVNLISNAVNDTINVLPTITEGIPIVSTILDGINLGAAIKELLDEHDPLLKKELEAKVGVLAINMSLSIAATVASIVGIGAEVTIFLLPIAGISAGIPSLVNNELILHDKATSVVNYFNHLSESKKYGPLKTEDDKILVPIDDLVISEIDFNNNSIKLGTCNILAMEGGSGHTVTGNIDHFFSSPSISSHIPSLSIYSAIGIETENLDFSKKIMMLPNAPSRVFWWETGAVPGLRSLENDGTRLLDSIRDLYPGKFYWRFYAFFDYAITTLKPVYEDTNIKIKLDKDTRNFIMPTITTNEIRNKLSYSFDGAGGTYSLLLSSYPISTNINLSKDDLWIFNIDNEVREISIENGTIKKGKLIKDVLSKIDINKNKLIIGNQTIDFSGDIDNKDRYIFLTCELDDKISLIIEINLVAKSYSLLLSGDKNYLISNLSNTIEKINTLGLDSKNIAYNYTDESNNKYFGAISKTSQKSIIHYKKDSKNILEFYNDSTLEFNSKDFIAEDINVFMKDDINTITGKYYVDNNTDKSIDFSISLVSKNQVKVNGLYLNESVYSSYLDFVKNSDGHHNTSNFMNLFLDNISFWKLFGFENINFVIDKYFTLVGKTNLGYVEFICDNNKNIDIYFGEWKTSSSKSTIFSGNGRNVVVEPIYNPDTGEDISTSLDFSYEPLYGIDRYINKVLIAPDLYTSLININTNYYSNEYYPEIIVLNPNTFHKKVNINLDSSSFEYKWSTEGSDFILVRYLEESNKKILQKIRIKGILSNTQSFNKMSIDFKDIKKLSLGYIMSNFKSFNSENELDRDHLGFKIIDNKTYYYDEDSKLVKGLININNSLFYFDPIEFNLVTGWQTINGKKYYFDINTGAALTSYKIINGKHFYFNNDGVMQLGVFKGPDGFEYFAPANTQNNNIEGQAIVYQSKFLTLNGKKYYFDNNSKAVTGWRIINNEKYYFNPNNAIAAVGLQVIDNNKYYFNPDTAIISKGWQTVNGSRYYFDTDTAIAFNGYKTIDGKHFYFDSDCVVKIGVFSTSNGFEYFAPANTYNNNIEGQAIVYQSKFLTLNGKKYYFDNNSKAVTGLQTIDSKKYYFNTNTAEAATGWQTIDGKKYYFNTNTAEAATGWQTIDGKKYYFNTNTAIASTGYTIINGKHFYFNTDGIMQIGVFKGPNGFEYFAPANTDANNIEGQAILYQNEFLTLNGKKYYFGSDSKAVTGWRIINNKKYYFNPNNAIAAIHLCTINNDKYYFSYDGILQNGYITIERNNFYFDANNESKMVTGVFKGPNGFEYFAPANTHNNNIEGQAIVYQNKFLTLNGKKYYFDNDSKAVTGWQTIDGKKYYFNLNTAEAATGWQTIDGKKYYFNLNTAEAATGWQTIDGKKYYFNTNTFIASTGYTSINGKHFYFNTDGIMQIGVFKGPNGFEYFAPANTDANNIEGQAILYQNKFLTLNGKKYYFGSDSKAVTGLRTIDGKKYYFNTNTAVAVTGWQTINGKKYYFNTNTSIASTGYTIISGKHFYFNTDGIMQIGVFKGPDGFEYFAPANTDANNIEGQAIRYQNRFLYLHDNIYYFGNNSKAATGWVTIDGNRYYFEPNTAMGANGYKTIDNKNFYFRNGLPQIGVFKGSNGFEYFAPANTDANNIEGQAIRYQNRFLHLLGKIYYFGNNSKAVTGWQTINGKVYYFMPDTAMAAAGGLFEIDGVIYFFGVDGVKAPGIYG",
  "assay": "Protection of T84 monolayers against C. difficile toxin A (transepithelial electrical resistance)",
  "type": "cell-based, Clostridium difficile",
  "settings": "T84 cells; prebiotic in combination with the same probiotic strains; fructooligosaccharides 20 g/l, galactooligosaccharides 20 g/l, sialyllactose 10 g/l; compared with preparations of the invention; FIG. 2",
  "data": [
    {"substance": "sialyllactose", "values": [
      {"measurement": "effect against C. difficile toxin A (TER, normalized protection score)", "value": "a comparable effect was not achieved"}
    ]}
  ]
}
